Experimental data from US10125098B2, “Therapeutic compounds and methods of use thereof” (GENENTECH, INC., priority 2014, dated 2018).
Where a name gives a salt, the structure may show the parent alone. Read-outs that look alike come from different tables or passages of the source.

Columns and labels:
NaV1.5 = biological target: T1, NaV1.5 (Homo sapiens, UniProt Q14524); test: Patch voltage clamp electrophysiology assay (EP), NaV1.5; assay type: cell-based; conditions: HEK-293 cells stably expressing NaV1.5 with β1 subunit, whole-cell patch clamp, membrane potential −60 mV (inactivated state)
T1 construct: permanently transfected with an expression vector containing the full-length cDNA coding for the desired human sodium channel α-subunit; expressed in transfected cells; host or cells: HEK-293
T1 sequence (Q14524 whole entry): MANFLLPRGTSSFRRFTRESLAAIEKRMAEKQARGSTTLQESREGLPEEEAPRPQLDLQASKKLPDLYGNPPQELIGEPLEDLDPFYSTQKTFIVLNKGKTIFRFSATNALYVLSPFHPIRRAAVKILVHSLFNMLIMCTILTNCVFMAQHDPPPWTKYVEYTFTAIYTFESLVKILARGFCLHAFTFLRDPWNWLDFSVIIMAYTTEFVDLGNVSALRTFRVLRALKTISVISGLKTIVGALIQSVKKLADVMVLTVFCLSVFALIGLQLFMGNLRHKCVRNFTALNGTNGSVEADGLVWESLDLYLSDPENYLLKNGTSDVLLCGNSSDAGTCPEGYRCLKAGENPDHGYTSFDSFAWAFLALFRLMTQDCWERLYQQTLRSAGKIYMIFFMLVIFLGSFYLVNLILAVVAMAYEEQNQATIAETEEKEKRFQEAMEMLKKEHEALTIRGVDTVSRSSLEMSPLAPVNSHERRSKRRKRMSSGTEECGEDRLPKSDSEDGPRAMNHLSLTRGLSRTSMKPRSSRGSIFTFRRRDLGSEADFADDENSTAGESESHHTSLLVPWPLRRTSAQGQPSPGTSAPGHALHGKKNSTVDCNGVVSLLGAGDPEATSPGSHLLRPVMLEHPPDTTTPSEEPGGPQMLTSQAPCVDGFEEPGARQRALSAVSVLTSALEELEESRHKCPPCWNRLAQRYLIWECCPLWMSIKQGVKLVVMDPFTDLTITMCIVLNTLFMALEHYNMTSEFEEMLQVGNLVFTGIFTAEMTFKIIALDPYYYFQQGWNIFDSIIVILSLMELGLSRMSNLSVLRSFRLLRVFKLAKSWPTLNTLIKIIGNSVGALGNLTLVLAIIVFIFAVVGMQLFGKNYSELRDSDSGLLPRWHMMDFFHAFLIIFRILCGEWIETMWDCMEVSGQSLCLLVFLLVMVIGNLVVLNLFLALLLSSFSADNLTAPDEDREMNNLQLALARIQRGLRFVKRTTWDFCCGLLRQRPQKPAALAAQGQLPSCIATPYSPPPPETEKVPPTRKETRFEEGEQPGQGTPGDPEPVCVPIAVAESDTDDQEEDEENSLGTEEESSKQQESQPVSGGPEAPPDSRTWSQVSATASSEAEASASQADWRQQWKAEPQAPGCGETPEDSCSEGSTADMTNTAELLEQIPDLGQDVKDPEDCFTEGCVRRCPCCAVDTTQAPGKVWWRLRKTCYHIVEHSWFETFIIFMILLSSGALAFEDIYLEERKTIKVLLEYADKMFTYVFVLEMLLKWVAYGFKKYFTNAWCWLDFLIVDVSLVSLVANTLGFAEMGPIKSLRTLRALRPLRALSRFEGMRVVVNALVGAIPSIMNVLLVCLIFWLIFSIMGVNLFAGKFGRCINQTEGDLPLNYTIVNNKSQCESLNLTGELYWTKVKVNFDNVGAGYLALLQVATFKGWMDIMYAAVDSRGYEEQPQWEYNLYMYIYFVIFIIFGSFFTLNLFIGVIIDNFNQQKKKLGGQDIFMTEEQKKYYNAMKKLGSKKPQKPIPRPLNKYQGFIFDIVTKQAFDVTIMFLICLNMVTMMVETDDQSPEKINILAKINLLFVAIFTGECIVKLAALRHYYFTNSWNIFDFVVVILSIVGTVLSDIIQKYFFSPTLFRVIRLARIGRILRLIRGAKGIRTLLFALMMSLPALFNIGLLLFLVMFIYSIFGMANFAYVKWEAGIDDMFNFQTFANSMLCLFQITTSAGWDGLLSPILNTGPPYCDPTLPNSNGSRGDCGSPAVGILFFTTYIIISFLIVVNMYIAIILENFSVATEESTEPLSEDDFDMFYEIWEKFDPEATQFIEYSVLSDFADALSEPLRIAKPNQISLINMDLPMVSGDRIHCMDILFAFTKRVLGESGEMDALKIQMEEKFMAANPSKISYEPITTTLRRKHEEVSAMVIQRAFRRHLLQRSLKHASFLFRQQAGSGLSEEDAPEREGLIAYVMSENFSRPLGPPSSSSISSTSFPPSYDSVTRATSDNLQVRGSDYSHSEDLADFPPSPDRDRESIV
Outline: (§1)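 HEK-293 cells stably expressing human α-subunit with β1; whole-cell patch clamp (PatchXpress or manual), ambient temperature, pH 7.4 external NaCl, CsF internal. Held at −60 mV (full inactivation), stepped to −150 mV for 20 ms, then test pulse; percent current decrease after compound wash-on taken as block.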

human NaV1.7 = biological target: T2, human NaV1.7 (Homo sapiens, UniProt Q15858); test: Patch voltage clamp electrophysiology assay (EP), NaV1.7; assay type: cell-based; conditions: HEK-293 cells stably expressing NaV1.7 with β1 subunit; whole-cell patch clamp, membrane potential −60 mV (inactivated state)
T2 construct: permanently transfected with an expression vector containing the full-length cDNA coding for the desired human sodium channel α-subunit; expressed in transfected cells; host or cells: HEK-293
T2 sequence (Q15858 1-1977 isoform Q15858-3): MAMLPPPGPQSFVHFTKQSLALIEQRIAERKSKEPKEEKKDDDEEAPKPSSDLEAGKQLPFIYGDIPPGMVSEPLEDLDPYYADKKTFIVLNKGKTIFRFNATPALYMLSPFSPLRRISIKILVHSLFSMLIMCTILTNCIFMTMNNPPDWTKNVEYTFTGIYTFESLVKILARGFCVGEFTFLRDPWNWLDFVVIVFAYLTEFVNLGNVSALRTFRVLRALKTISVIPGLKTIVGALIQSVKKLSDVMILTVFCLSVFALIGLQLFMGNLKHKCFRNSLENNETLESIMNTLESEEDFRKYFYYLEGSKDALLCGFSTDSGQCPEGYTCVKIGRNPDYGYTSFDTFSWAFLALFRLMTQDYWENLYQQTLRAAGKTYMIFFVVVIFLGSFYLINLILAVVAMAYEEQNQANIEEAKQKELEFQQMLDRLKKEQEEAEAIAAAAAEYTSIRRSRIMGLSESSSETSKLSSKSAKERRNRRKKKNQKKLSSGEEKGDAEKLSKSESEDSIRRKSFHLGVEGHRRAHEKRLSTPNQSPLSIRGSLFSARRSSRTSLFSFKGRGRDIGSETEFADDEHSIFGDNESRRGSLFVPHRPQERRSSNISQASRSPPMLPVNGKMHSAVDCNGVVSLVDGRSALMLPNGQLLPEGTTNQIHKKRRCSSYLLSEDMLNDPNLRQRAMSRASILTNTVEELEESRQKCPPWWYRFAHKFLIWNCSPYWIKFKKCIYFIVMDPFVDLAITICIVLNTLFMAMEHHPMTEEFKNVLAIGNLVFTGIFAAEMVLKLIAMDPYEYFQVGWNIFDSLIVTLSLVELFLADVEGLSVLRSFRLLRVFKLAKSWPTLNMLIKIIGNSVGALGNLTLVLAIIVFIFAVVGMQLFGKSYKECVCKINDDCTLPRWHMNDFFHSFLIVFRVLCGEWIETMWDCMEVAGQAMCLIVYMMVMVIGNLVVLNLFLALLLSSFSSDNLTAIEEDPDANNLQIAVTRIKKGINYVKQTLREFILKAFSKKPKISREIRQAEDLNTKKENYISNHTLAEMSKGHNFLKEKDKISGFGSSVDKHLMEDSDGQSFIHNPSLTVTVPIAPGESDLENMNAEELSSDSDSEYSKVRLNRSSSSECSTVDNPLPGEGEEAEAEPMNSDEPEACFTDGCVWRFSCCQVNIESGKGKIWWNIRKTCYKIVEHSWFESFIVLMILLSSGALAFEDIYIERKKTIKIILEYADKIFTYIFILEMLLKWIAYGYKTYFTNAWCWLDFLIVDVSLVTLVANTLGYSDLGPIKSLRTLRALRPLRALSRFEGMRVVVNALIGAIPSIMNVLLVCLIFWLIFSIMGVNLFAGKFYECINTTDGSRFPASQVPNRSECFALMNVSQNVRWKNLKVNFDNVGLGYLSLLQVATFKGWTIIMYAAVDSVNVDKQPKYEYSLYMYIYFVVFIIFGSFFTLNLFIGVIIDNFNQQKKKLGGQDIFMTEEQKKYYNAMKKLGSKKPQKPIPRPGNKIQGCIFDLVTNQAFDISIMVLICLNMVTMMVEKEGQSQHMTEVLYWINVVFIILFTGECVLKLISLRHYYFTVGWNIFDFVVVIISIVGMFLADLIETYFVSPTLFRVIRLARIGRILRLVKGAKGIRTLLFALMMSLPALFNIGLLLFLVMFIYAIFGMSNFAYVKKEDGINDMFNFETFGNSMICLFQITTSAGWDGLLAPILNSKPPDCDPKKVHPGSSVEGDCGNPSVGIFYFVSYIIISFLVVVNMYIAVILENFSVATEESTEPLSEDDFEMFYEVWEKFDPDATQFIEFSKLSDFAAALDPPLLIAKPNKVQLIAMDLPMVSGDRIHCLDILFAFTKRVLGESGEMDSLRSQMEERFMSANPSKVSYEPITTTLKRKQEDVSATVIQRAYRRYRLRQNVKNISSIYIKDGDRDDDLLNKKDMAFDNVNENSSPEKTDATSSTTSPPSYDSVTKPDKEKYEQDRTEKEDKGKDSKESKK
T2 sequence (Q07699 19-218 partner): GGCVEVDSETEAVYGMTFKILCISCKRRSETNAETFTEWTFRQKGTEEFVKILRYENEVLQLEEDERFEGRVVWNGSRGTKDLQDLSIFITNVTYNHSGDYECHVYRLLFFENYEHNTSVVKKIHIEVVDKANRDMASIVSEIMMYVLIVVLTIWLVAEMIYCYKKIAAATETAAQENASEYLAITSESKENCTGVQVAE
Outline: as §1

hNav1.7 = biological target: T3, hNav1.7 (Homo sapiens, UniProt Q15858); test: Tritiated compound binding (LBA) to membranes from cells expressing hNav1.7 and the β1 subunit, competitive binding; conditions: competitive binding vs 100 pM [3H]compound, 18 h, room temperature, membranes with hNav1.7 and β1 subunit
T3 construct: expressed in transfected cells
T3 sequence (Q15858 1-1977 isoform Q15858-3): as the sequence (Q15858 1-1977 isoform Q15858-3) above
T3 sequence (Q07699 19-218 partner): as the sequence (Q07699 19-218 partner) above
Outline: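 Membranes from cells expressing hNav1.7 with β1 were incubated 18 h at room temperature with 100 pM tritiated formula (I) compound and increasing test compound, in 100 mM NaCl, 20 mM Tris HCl pH 7.4, 0.01% BSA.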

[1] = human, HEK-293 cells stably expressing human NaV1.5 with β1 subunit, pH 7.4

Row | SMILES | IC50 (NaV1.5; read-out: Nav1.5) [nM] | IC50 (human NaV1.7) [nM] | IC50 (hNav1.7) [nM] | IC50 (NaV1.5; [1]) [nM]
1 | O=C(N[C@H](C(=O)O)C1CC1)c1cc(C2CC2)c(OCC23CC4CC(CC(C4)C2)C3)cc1F [Example 74, (S)-2-(4-(adamantan-1-ylmethoxy)-5-cyclopropyl-2-fluorobenzamido)-2-cyclopropylacetic acid] | 7500 | 700 | 24 | –
2 | O=C(O)[C@@H]1[C@@H](O)CCN1C(=O)c1cc(C2CC2)c(OCC23CC4CC(CC(C4)C2)C3)cc1F [Example 75, (2S,3S)-1-(4-(adamantan-1-ylmethoxy)-5-cyclopropyl-2-fluorobenzoyl)-3-hydroxypyrrolidine-2-carboxylic acid] | 25000 | 1300 | 600 | –
3 | CO[C@H]1CCN(C(=O)c2cc(C3CC3)c(OCC34CC5CC(CC(C5)C3)C4)cc2F)[C@@H]1C(=O)O [Example 76, (2S,3 S)-1-(4-(adamantan-1-ylmethoxy)-5-cyclopropyl-2-fluorobenzoyl)-3-methoxypyrrolidine-2-carboxylic acid] | 17000 | 1000 | 87 | –
4 | O=C(NC1(C(=O)O)COC1)c1cc(C2CC2)c(OCC23CC4CC(CC(C4)C2)C3)cc1F [Example 77, 3-(4-(adamantan-1-ylmethoxy)-5-cyclopropyl-2-fluorobenzamido)oxetane-3-carboxylic acid] | 12000 | 11000 | 7400 | –
5 | O=C(O)C1SCCN1C(=O)c1cc(C2CC2)c(OCC23CC4CC(CC(C4)C2)C3)cc1F (stereo not drawn) [Example 78, 3-(4-(adamantan-1-ylmethoxy)-5-cyclopropyl-2-fluorobenzoyl)thiazolidine-2-carboxylic acid] | 13000 | 87 | 9.4 | –
6 | O=C(O)[C@@H]1CCCCN1C(=O)c1cc(C2CC2)c(OCC23CC4CC(CC(C4)C2)C3)cc1F [Example 83, (S)-1-(4-(adamantan-1-ylmethoxy)-5-cyclopropyl-2-fluorobenzoyl)piperidine-2-carboxylic acid] | 14000 | 2000 | 480 | –
7 | O=C(O)C[C@H](NC(=O)c1cc(C2CC2)c(OCC23CC4CC(CC(C4)C2)C3)cc1F)C(=O)O [Example 84, (S)-2-(4-(adamantan-1-ylmethoxy)-5-cyclopropyl-2-fluorobenzamido)succinic acid] | – | 17000 | ≥ 10000 | ≥ 30000
8 | O=C(O)[C@@H]1CCCN1C(=O)c1ccc(OCC23CC4CC(CC(C4)C2)C3)c(C(F)(F)F)c1 [Example 85, (S)-1-(4-(adamantan-1-ylmethoxy)-3-(trifluoromethyl)benzoyl)-pyrrolidine-2-carboxylic acid] | 17000 | 1100 | 590 | –
9 | O=C(O)[C@@H]1CCN1C(=O)c1cc(C2CC2)c(OCC23CC4CC(CC(C4)C2)C3)cc1F [Example 86, (S)-1-(4-(adamantan-1-ylmethoxy)-5-cyclopropyl-2-fluorobenzoyl)azetidine-2-carboxylic acid] | 26000 | 1900 | 1600 | –
10 | CC[C@H](NC(=O)c1cc(C2CC2)c(OCC23CC4CC(CC(C4)C2)C3)cc1F)C(=O)O [Example 87, (S)-2-(4-(adamantan-1-ylmethoxy)-5-cyclopropyl-2-fluorobenzamido)butanoic acid] | 7100 | 1300 | 56 | –
11 | CC(C)C[C@H](NC(=O)c1cc(C2CC2)c(OCC23CC4CC(CC(C4)C2)C3)cc1F)C(=O)O [Example 88, (S)-2-(4-(adamantan-1-ylmethoxy)-5-cyclopropyl-2-fluorobenzamido)-4-methylpentanoic acid] | 8200 | 7000 | 430 | –
12 | CCc1cc(C(=O)N2CCC[C@H]2C(=O)O)c(F)cc1OCC12CC3CC(CC(C3)C1)C2 [Example 89, (S)-1-(4-(adamantan-1-ylmethoxy)-5-ethyl-2-fluorobenzoyl)pyrrolidine-2-carboxylic acid] | 17000 | 790 | 130 | –
13 | CC1(C)[C@H]2CC[C@H](COc3cc(F)c(C(=O)N4CCC[C@H]4C(=O)O)cc3C3CC3)[C@@H]1C2 [Example 90, (S)-1-(5-cyclopropyl-4-(((1S, 2S, 5S)-6,6-dimethylbicyclo[3.1.1]heptan-2-yl)methoxy)-2-fluorobenzoyl)pyrrolidine-2-carboxylic acid] | 13000 | 160 | 21 | –
14 | CC(c1cc(Cl)cc(Cl)c1)N1CCC(COc2cc(F)c(C(=O)N3C[C@H](F)C[C@H]3C(=O)O)cc2C2CC2)CC1 (stereo partly drawn) [Example 91, (2S, 4R)-1-(5-cyclopropyl-4-((1-(1-(3,5-dichlorophenyl)ethyl)piperidin-4-yl)methoxy)-2-fluorobenzoyl)-4-fluoropyrrolidine-2-carboxylic acid] | 23000 | 300 | 15 | –
15 | O=C(O)[C@@H]1C[C@@H](F)CN1C(=O)c1cc(C2CC2)c(OCC2CCN(Cc3cc(C(F)(F)F)cc(C4CC4)n3)CC2)cc1F [Example 93, (2S, 4R)-1-(5-cyclopropyl-4-((1-((6-cyclopropyl-4-(trifluoromethyl)-pyridin-2-yl)methyl)piperidin-4-yl)methoxy)-2-fluorobenzoyl)-4-fluoropyrrolidine-2-carboxylic acid] | – | 660 | 81 | ≥ 30000
16 | O=C(O)[C@@H]1C[C@@H](F)CN1C(=O)c1cc(C2CC2)c(OCCC2CCN(Cc3cc(Cl)cc(Cl)c3)CC2)cc1F [Example 94, (2S, 4R)-1-(5-cyclopropyl-4-(2-(1-(3,5-dichlorobenzyl)piperidin-4-yl)ethoxy)-2-fluorobenzoyl)-4-fluoropyrrolidine-2-carboxylic acid] | – | 600 | 100 | ≥ 30000
17 | O=C(O)C1CC=NN1C(=O)c1cc(C2CC2)c(OCC23CC4CC(CC(C4)C2)C3)cc1F (stereo not drawn) [Example 96, 1-(4-(adamantan-1-ylmethoxy)-5-cyclopropyl-2-fluorobenzoyl)-4,5-dihydro-1H-pyrazole-5-carboxylic acid] | – | 1500 | 380 | ≥ 30000
18 | CC(C)COc1ncc(Oc2cc(F)c(C(=O)N3CCC[C@H]3C(=O)O)cc2Cl)cc1Cl [Example 97, 5-chloro-4-((5-chloro-6-isobutoxypyridin-3-yl)oxy)-2-fluorobenzoyl)-L-proline trifluoroacetic acid salt] | – | 570 | 440 | ≥ 30000
19 | CC(C)COc1ncc(Oc2cc(F)c(C(=O)N3CCC[C@H]3C(=O)O)cc2C2CC2)cc1C1CC1 [Example 98, (5-cyclopropyl-4-((5-cyclopropyl-6-isobutoxypyridin-3-yl)oxy)-2-fluorobenzoyl)-L-proline trifluoroacetic acid salt and (4-((5-chloro-6-isobutoxypyridin-3-yl)oxy)-5-cyclopropyl-2-fluorobenzoyl)-L-proline trifluoroacetic acid salt] | – | 740 | 440 | ≥ 30000
20 | O=C(O)[C@@H]1CCCN1C(=O)c1cc(C2CC2)c(OCC2(F)CN(Cc3ccc(Cl)cc3C(F)(F)F)C2)cc1F [Example 99, 1-(4-((1-(4-chloro-2-(trifluoromethyl)benzyl)-3-fluoroazetidin-3-yl)methoxy)-5-cyclopropyl-2-fluorobenzoyl)pyrrolidine-2-carboxylic acid trifluoroacetic acid salt] | – | 550 | 230 | ≥ 30000
21 | O=C(O)[C@@H]1C[C@@H](F)CN1C(=O)c1cc(C2CC2)c(OCC2CCN(Cc3cc(C(F)(F)F)cc(Cl)c3F)CC2)cc1F [Example 101, (2S,4R)-1-(4-((1-(3-chloro-2-fluoro-5-(trifluoromethyl)benzyl)-piperidin-4-yl)methoxy)-5-cyclopropyl-2-fluorobenzoyl)-4-fluoropyrrolidine-2-carboxylic acid] | – | 520 | 66 | ≥ 30000
22 | O=C(O)[C@@H]1C[C@@H](F)CN1C(=O)c1cc(C2CC2)c(OCC2(F)CCN(Cc3cc(C(F)(F)F)cc(Cl)c3F)CC2)cc1F [Example 102, (2S,4R)-1-(4-((1-(3-chloro-2-fluoro-5-(trifluoromethyl)benzyl)-4-fluoropiperidin-4-yl)methoxy)-5-cyclopropyl-2-fluorobenzoyl)-4-fluoropyrrolidine-2-carboxylic acid] | 23000 | 330 | 65 | –
23 | O=C(O)[C@@H]1C[C@@H](F)CN1C(=O)c1cc(C2CC2)c(OCC2CCN(Cc3cc(C(F)(F)F)ccc3F)CC2)cc1F [Example 103, (2S,4R)-1-(5-cyclopropyl-2-fluoro-4-((1-(2-fluoro-5-(trifluoromethyl)benzyl)-piperidin-4-yl)methoxy)benzoyl)-4-fluoropyrrolidine-2-carboxylic acid] | – | 340 | 33 | ≥ 30000
24 | O=C(O)[C@@H]1C[C@@H](F)CN1C(=O)c1cc(C2CC2)c(OCC2CCN(Cc3ccc(Cl)c(F)c3)CC2)cc1F [Example 104, (2S,4R)-1-(4-((1-(4-chloro-3-fluorobenzyl)piperidin-4-yl)methoxy)-5-cyclopropyl-2-fluorobenzoyl)-4-fluoropyrrolidine-2-carboxylic acid] | – | 1600 | 130 | ≥ 30000
